One data set concerns Boophilus microplus. The experiment in a line: Boophilus microplus test (BOOPMI injection). Particulars: application rate 20 μg/animal; injected into the abdomen; after 7 days. It is filed as in vivo. The method, then:
Boophilus microplus Test (BOOPMI Injection) Solvent: dimethyl sulphoxide To prepare an appropriate active ingredient formulation, 10 mg of active ingredient are mixed with 0.5 ml of solvent and the concentrate is diluted with solvent to the desired concentration. The active ingredient solution is injected into the abdomen (Boophilus microplus), and the animals are transferred into dishes and stored in a climate-controlled room. After 7 days, the efficacy in % is determined. The activity is assessed by laying of fertile eggs. 100% means that none of the ticks has laid any fertile eggs.

In the next data set the test system is Phaedon cochleariae. The experiment in a line: Phaedon test (PHAECO spray treatment). It counts as in vivo. The conditions noted are these: application rate 100 g/ha, Chinese cabbage leaf discs, after 7 days. In outline: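 Larval mortality was assessed 7 days after Phaedon cochleariae larvae were placed on dried, spray-treated Brassica pekinensis leaf discs. The formulation was an acetone/dimethylformamide concentrate with alkylaryl polyglycol ether emulsifier, diluted in emulsifier-containing water. Results are given as % kill, from 0 (no larvae dead) to 100 (all dead).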

Another data set concerns Ctenocephalides felis. The experiment in a line: Ctenocephalides felis oral (CTECFE). It is filed as in vivo. Particulars: application rate 100 ppm in citrated cattle blood; after 2 days. The method, then:
Ctenocephalides felis Oral ([…]) Solvent: 1 part by weight of dimethyl sulphoxide For the purpose of preparing an appropriate active ingredient formulation, 10 mg of active ingredient are mixed with 0.5 ml of dimethyl sulphoxide. A portion of the concentrate is diluted with citrated cattle blood, and the desired concentration is prepared. About 20 unfed adult fleas (Ctenocephalides felis) are placed into a chamber which is closed at the top and bottom with gauze. A metal cylinder whose bottom end is closed with Parafilm is placed onto the chamber. The cylinder contains the blood/active ingredient formulation, which can be imbibed by the fleas through the Parafilm membrane. After 2 days, the kill in % is determined 100% means that all of the fleas have been killed; 0% means that none of the fleas have been killed.

The subject of another data set is adult Musca domestica. The experiment in a line: Musca domestica test (MUSCDO). It counts as in vivo. Particulars: application rate 100 ppm; treated sponge; after 2 days. As to the method: Musca domestica Test (MUSCDO) Solvent: dimethyl sulphoxide To prepare an appropriate active ingredient formulation, 10 mg of active ingredient are mixed with 0.5 ml of dimethyl sulphoxide and the concentrate is diluted with water to the desired concentration. Vessels containing a sponge treated with the active ingredient formulation of the desired concentration are populated with adult Musca domestica. After 2 days, the kill in % is determined 100% means that all of the flies have been killed; 0% means that none of the flies have been killed.

The subject of another data set is Lucilia cuprina larvae. The experiment in a line: Lucilia cuprina test (LUCICU). Particulars: application rate 100 ppm; treated horse meat; after 2 days. It counts as in vivo. As to the method:
Lucilia cuprina Test (LUCICU) Solvent: dimethyl sulphoxide To prepare an appropriate active ingredient formulation, 10 mg of active ingredient are mixed with 0.5 ml of dimethyl sulphoxide and the concentrate is diluted with water to the desired concentration. Vessels containing horse meat treated with the active ingredient formulation of the desired concentration are populated with about 20 Lucilia cuprina larvae. After 2 days, the kill in % is determined. 100% means that all of the larvae have been killed; 0% means that none of the larvae have been killed.

A further data set can be described thus: logP (HPLC-MS). It is filed as physicochemical.
The next data set relates to Spodoptera frugiperda. The experiment in a line: Spodoptera frugiperda test (SPODFR spray treatment). Particulars: application rate 100 g/ha; maize leaf discs; after 7 days. It counts as in vivo. Put shortly: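 Mortality read-out at 7 days, given as % efficacy, where 100% means every caterpillar dead and 0% none. Caterpillars were placed on dried maize leaf discs that had been sprayed with test formulation. That formulation was an acetone/dimethylformamide concentrate diluted in emulsifier-containing water.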

The next data set has as its system Tetranychus urticae. The experiment in a line: Tetranychus test, OP-resistant (TETRUR spray treatment). It counts as in vivo. The conditions noted are these: bean leaf discs, after 6 days. As to the method:
Tetranychus Test, OP-Resistant (TETRUR Spray Treatment)
Solvent: 78.0 parts by weight of acetone • • 1.5 parts by weight of dimethylformamide
Emulgator: 0.5 part by weight of alkylaryl polyglycol ether
To produce an appropriate active ingredient formulation, 1 part by weight of active ingredient is mixed with the stated amounts of solvent and emulsifier, and the concentrate is diluted with emulsifier-containing water to the desired concentration.
Discs of bean leaves (Phaseolus vulgaris) infested by all stages of the red spider mite (Tetranychus urticae) are sprayed with an active ingredient formulation of the desired concentration.
After 6 days, the efficacy in % is determined. 100% means that all of the spider mites have been killed; 0% means that none of the spider mites have been killed.

The mark [1] stands for this setting: HPLC, reversed-phase column (C18), acidic range pH 2.7, acetonitrile (0.1% formic acid)/water gradient, 43° C., calibration with unbranched alkan-2-ones.

Read-outs that look alike come from different tables or passages of the source.

On to `CCn1c(C(=O)NC(c2ccc(F)c(C(F)(F)F)c2)C(F)(F)F)cc2cc(C(=O)NCC(F)F)c(Cl)cc21` (stereo not shown) [Compound 19, 6-chloro-N^5-(2,2-difluoroethyl)-1-ethyl-N^2-{2,2,2-trifluoro-1-[4-fluoro-3-(trifluoromethyl)phenyl]ethyl}-1H-indole-2,5-dicarboxamide], for which, in the data set with Boophilus microplus, the “efficacy (laying of fertile eggs)” value is 100%. Besides, the pest or weed control at 100 g/ha with Phaedon cochleariae (Phaedon cochleariae, foliar, 168 h, read-out: efficacy in %) turned out to be 100%. For the same molecule, the “efficacy (kill in %)” value with Ctenocephalides felis, with adult Musca domestica and with Lucilia cuprina larvae was 100% throughout. Besides, the chromatographic logP in “logP (HPLC-MS)” (HPLC, reversed-phase column (C18), acidic range pH 2.7, acetonitrile (0.1% formic acid)/water gradient, 43° C., calibration with unbranched alkan-2-ones, read-out: log p) is 4.03; in “logP (HPLC-MS)” (HPLC-MS) it was 5.16.
On to `CCn1c(C(=O)NC(c2cccc(C(F)(F)F)c2)C(F)(F)F)cc2cc(C(=O)NCC(C)(F)F)c(Cl)cc21` (stereo not shown) [Compound 10], for which the “efficacy (laying of fertile eggs)” value in the data set with Boophilus microplus is on record as 100%. The efficacy in % with Spodoptera frugiperda is 83%; in the data set with Phaedon cochleariae, 100%. For the same molecule, the “efficacy (kill in %)” value is on record as 95% in the data set with Ctenocephalides felis, 100% in the data set on adult Musca domestica and 100% in the data set on Lucilia cuprina larvae. The same molecule came in with a log p in “logP (HPLC-MS)” (setting [1]) of 4.06.
As for `CCn1c(C(=O)NC(c2cccc(C(F)(F)F)c2)C(F)(F)F)cc2cc(C(=O)NC3(C#N)CCC3)c(Cl)cc21` (stereo not shown) [Compound 36], the efficacy in % with Tetranychus urticae (application rate 100 g/ha), with Spodoptera frugiperda and in the data set on Phaedon cochleariae was 100% throughout. In addition, the “efficacy (laying of fertile eggs)” value with Boophilus microplus is listed as 100%. Further, the “efficacy (kill in %)” value in the data set on Ctenocephalides felis turned out to be 100%; with Lucilia cuprina larvae it was 95%. This molecule also came in with a log p in “logP (HPLC-MS)” (setting [1]) of 4.09.
As for `CCn1c(C(=O)NC(c2cccc(Br)c2)C(F)(F)F)cc2cc(C(=O)NC3(C#N)CC3)c(Cl)cc21` (stereo not shown) [Compound 41], the efficacy in % in the data set with Tetranychus urticae (application rate 100 g/ha) and in the data set on Spodoptera frugiperda was 100% in each case. Further, the “efficacy (laying of fertile eggs)” value with Boophilus microplus is listed as 100%. Further, the “efficacy (kill in %)” value in the data set with Ctenocephalides felis and in the data set on Lucilia cuprina larvae was 100% throughout. In the data set “logP (HPLC-MS)” (setting [1]), the log p was 3.75.
Take `CCn1c(C(=O)NC(c2cccc(C(F)(F)F)c2)C(F)(F)F)cc2cc(C(=O)NC3(C(=O)OC)CC3)c(Cl)cc21` (stereo not shown) [Compound 28]: the efficacy in % in the data set on Tetranychus urticae (application rate 500 g/ha) is reported as 100%; with Spodoptera frugiperda it was 83%; in the data set with Phaedon cochleariae it was 100%. For the same molecule, the “efficacy (laying of fertile eggs)” value in the data set with Boophilus microplus worked out at 100%. Moreover, the “efficacy (kill in %)” value was 95% in the data set on Ctenocephalides felis and 100% in the data set on Lucilia cuprina larvae. For the same molecule, the log p in the data set “logP (HPLC-MS)” (setting [1]) was 3.86.
As for `CCn1c(C(=O)NC(c2cccc(Cl)c2)C(F)(F)F)cc2cc(C(=O)NC3(C#N)CC3)c(Cl)cc21` (stereo not shown) [Compound 39], the efficacy in % with Tetranychus urticae (application rate 100 g/ha), in the data set with Spodoptera frugiperda and with Phaedon cochleariae was 100% in each case. In addition, the “efficacy (laying of fertile eggs)” value with Boophilus microplus worked out at 100%. Besides, the “efficacy (kill in %)” value in the data set with Ctenocephalides felis and in the data set with Lucilia cuprina larvae was 100% throughout. The molecule also yielded a log p in “logP (HPLC-MS)” (setting [1]) of 3.67.
On to `CCn1c(C(=O)NC(c2cccc(Cl)c2)C(F)(F)F)cc2cc(C(=O)NC3CC3)c(Cl)cc21` (stereo not shown) [Compound 2], for which the efficacy in % in the data set with Tetranychus urticae (application rate 500 g/ha), in the data set with Spodoptera frugiperda and in the data set with Phaedon cochleariae was 100% throughout. The “efficacy (laying of fertile eggs)” value in the data set with Boophilus microplus is given as 100%. Besides, the figures for the “efficacy (kill in %)” value with Ctenocephalides felis and with Lucilia cuprina larvae were 95% and 100%, respectively. For the same molecule, the log p in “logP (HPLC-MS)” (setting [1]) is listed as 3.65.
For the molecule `Cn1c(C(=O)NC(c2cccc(Br)c2)C(F)(F)F)cc2cc(C(=O)NC3(C#N)CC3)c(Cl)cc21` (stereo not shown) [Compound 48], the efficacy in % in the data set on Tetranychus urticae (application rate 100 g/ha), in the data set on Spodoptera frugiperda and in the data set on Phaedon cochleariae was 100% throughout. For the same molecule, the “efficacy (laying of fertile eggs)” value with Boophilus microplus turned out to be 100%. In addition, the “efficacy (kill in %)” value in the data set with Ctenocephalides felis and in the data set on Lucilia cuprina larvae was 100% throughout. The log p in the data set “logP (HPLC-MS)” (setting [1]) was determined as 3.39.

The values are drawn from patent US9107411B2, “Indolecarboxamides and benzimidazolecarboxamides as insecticides and acaricides” (BAYER INTELLECTUAL PROPERTY GMBH, priority 2011, dated 2015).
